According to ChEMBL document CHEMBL1909046, “DrugMatrix in vitro pharmacology data”:
pIC50, pKi: −log10 of the molar value.

Key:
Interstitial collagenase = biological target: T1, Interstitial collagenase (Homo sapiens, UniProt P03956); assay type: tissue-based, Rheumatoid synovial fibroblasts;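 further: MMP-1 enzyme inhibition assay using a peptide substrate; in other assays of this panel Not Active means under 50% inhibition at 10 µM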
T1 sequence (P03956 whole entry): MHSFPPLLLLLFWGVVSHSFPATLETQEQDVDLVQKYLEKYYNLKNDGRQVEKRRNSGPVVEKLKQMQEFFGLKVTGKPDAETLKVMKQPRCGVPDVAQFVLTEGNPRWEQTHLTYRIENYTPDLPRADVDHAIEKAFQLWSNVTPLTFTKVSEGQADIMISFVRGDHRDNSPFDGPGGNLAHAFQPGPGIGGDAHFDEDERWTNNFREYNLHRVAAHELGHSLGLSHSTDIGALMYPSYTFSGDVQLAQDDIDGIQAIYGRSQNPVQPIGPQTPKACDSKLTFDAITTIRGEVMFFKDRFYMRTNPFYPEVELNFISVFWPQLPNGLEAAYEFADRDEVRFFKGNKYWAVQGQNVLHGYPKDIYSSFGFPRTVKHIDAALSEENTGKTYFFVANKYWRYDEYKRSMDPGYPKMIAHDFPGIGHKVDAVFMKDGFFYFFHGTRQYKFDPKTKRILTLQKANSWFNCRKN

Neutrophil elastase = biological target: T2, Neutrophil elastase (Homo sapiens, UniProt P08246); assay type: tissue-based;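 further: inhibition of neutrophil elastase enzyme activity, measured with a p-nitroanilide-linked peptide substrate; in other assays of this panel Not Active means under 50% inhibition at 10 µM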
T2 sequence (P08246 whole entry): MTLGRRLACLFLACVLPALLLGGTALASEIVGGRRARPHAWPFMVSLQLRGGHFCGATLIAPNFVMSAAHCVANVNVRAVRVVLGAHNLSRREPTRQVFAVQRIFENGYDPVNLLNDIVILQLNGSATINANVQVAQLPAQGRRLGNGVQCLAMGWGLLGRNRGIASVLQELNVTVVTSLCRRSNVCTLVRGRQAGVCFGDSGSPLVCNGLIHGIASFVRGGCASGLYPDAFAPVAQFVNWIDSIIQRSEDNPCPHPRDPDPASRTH

[1] = DRUGMATRIX: beta-Lactamase enzyme inhibition (substrate: Nitrocefin); design: species or system Bacillus cereus; settings: Not Active = under 50% inhibition at 10 µM
[2] = biological target: Platelet-activating factor receptor (Homo sapiens, UniProt P25105); assay: biochemical; assay type: tissue-based; settings: platelet; further: in other assays of this panel Not Active means under 50% inhibition at 10 µM
[3] = DRUGMATRIX: GABAA, Chloride Channel, TBOB radioligand binding (ligand: [3H] TBOB); assay type: cell membranes, Rattus norvegicus, Wistar, Cerebral cortex, Membrane; settings: Not Active = under 50% inhibition at 10 µM
Leukotriene C4 synthase = biological target: T3, Leukotriene C4 synthase (Cavia porcellus, UniProt A6XA80); assay type: tissue-based, Lung;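 further: enzyme inhibition assay of leukotriene C4 synthase, using LTA4 as the substrate; in other assays of this panel Not Active means under 50% inhibition at 10 µM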
T3 sequence (A6XA80 whole entry): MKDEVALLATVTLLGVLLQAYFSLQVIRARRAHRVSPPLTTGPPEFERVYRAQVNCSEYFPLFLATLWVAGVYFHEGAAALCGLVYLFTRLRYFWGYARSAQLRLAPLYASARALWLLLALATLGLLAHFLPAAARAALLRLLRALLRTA

[4] = DRUGMATRIX: Calcium Channel Type L, Phenylalkylamine radioligand binding (ligand: [3H] (-)-Desmethoxyverapamil (D-888)); assay type: cell membranes, Rattus norvegicus, Wistar, Brain, Membrane; settings: Not Active = under 50% inhibition at 10 µM

Sequence of Platelet-activating factor receptor (P25105 whole entry): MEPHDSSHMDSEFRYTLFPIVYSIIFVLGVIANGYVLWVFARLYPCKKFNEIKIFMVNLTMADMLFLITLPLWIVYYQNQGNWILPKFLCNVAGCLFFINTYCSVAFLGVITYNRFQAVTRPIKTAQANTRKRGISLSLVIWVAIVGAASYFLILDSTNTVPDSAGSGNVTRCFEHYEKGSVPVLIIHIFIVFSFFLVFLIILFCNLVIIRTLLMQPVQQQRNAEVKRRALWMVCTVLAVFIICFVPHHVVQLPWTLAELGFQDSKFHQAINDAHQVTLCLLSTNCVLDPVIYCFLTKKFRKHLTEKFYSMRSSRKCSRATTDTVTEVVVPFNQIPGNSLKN

Molecule	IC50 (Interstitial collagenase)	IC50 (Neutrophil elastase)	IC50 [1]	Ki [1]	IC50 [2]	IC50 [3]	Ki [3]	IC50 (Leukotriene C4 synthase)	IC50 [4]	Ki [4]	Ki (Interstitial collagenase)	Ki (Neutrophil elastase)	Ki [2]	Ki (Leukotriene C4 synthase)	pIC50 ([4]; read-out: IC50)	pKi ([4]; read-out: Ki)
CCOC(=O)[C@H](CCc1ccccc1)N[C@@H](C)C(=O)N1CCC[C@H]1C(=O)O	Not Active	Not Active	Not Active	Not Active	Not Active	Not Active	Not Active	Not Active	Not Active	Not Active	–	–	–	–	–	–
POLYVINYL ALCOHOL	Not Active	Not Active	Not Active	Not Active	Not Active	Not Active	Not Active	Not Active	Not Active	Not Active	Not Active	Not Active	Not Active	Not Active	–	–
CCC[C@@H]1C[C@@H](C(=O)N[C@@H]([C@H]2O[C@H](SC)[C@H](O)[C@@H](O)[C@H]2O)[C@H](C)Cl)N(C)C1 [CLINDAMYCIN]	Not Active	Not Active	Not Active	Not Active	Not Active	Not Active	Not Active	Not Active	Not Active	Not Active	–	–	–	–	–	–
CN(Cc1cnc2nc(N)nc(N)c2n1)c1ccc(C(=O)N[C@@H](CCC(=O)O)C(=O)O)cc1 [METHOTREXATE]	Not Active	Not Active	Not Active	Not Active	Not Active	Not Active	Not Active	Not Active	Not Active	Not Active	–	–	–	–	–	–
CO[C@@]1(NC(=O)CSCC#N)C(=O)N2C(C(=O)O)=C(CSc3nnnn3C)CS[C@@H]21 [CEFMETAZOLE]	Not Active	Not Active	Not Active	Not Active	Not Active	Not Active	Not Active	Not Active	Not Active	Not Active	–	–	–	–	–	–
C[C@@H]1CC[C@H]2[C@@H](C)C(=O)O[C@@H]3O[C@@]4(C)CC[C@@H]1[C@]32OO4 [ARTEMISININ]	Not Active	Not Active	Not Active	Not Active	Not Active	Not Active	Not Active	Not Active	Not Active	Not Active	–	–	–	–	–	–
CC(C(=O)O)c1ccc(CC2CCCC2=O)cc1 (configuration not stated) [LOXOPROFEN]	Not Active	Not Active	Not Active	Not Active	Not Active	Not Active	Not Active	Not Active	Not Active	Not Active	–	–	–	–	–	–
CCCCCC[C@H]1C(=O)O[C@H](C)[C@H](NC(=O)c2cccc(NC=O)c2O)C(=O)O[C@@H](C)[C@@H]1OC(=O)CC(C)C [ANTIMYCIN A]	Not Active	Not Active	Not Active	Not Active	Not Active	Not Active	Not Active	Not Active	Not Active	Not Active	–	–	–	–	–	–
C#C[C@]1(O)CC[C@H]2[C@@H]3CCc4cc(O)ccc4[C@H]3CC[C@@]21C [ETHINYL ESTRADIOL]	Not Active	Not Active	Not Active	Not Active	Not Active	Not Active	Not Active	Not Active	–	–	–	–	–	–	5.16	5.17
CC[C@H]1OC(=O)[C@H](C)[C@@H](O[C@H]2C[C@@](C)(OC)[C@@H](O)[C@H](C)O2)[C@H](C)[C@@H](O[C@@H]2O[C@H](C)C[C@H](N(C)C)[C@H]2O)[C@](C)(O)C[C@@H](C)CN(C)[C@H](C)[C@@H](O)[C@]1(C)O [AZITHROMYCIN]	Not Active	Not Active	Not Active	Not Active	Not Active	Not Active	Not Active	Not Active	Not Active	Not Active	–	–	–	–	–	–
COc1ccc2cc(CCC(C)=O)ccc2c1 [NABUMETONE]	Not Active	Not Active	Not Active	Not Active	Not Active	Not Active	Not Active	Not Active	Not Active	Not Active	–	–	–	–	–	–
CCCCC1C(=O)N(c2ccccc2)N(c2ccccc2)C1=O [PHENYLBUTAZONE]	Not Active	Not Active	Not Active	Not Active	Not Active	Not Active	Not Active	Not Active	Not Active	Not Active	–	–	–	–	–	–
C=C1/C(=C\C=C2/CCC[C@]3(C)[C@@H]([C@H](C)CCCC(C)C)CC[C@@H]23)C[C@@H](O)C[C@@H]1O [ALFACALCIDOL]	Not Active	Not Active	Not Active	Not Active	Not Active	Not Active	Not Active	Not Active	Not Active	Not Active	–	–	–	–	–	–
NC(=O)N1c2ccccc2C=Cc2ccccc21 [CARBAMAZEPINE]	Not Active	Not Active	Not Active	Not Active	Not Active	Not Active	Not Active	Not Active	Not Active	Not Active	–	–	–	–	–	–
COc1ccc(Cc2nccc3cc(OC)c(OC)cc23)cc1OC [PAPAVERINE]	Not Active	Not Active	Not Active	Not Active	Not Active	Not Active	Not Active	Not Active	Not Active	Not Active	–	–	–	–	–	–
CNC(=C[N+](=O)[O-])NCCSCc1csc(CN(C)C)n1 [NIZATIDINE]	Not Active	Not Active	Not Active	Not Active	Not Active	Not Active	Not Active	Not Active	Not Active	Not Active	–	–	–	–	–	–
COc1ccccc1OCC(O)CO (configuration not stated) [GUAIFENESIN]	Not Active	Not Active	Not Active	Not Active	Not Active	Not Active	Not Active	Not Active	Not Active	Not Active	–	–	–	–	–	–
O=C(c1ccccc1Cl)N1CCC(Cc2ccccc2)CC1	Not Active	Not Active	Not Active	Not Active	Not Active	Not Active	Not Active	Not Active	Not Active	Not Active	–	–	–	–	–	–
Cc1cccc(Nc2cc(Cl)nc(SCC(=O)O)n2)c1C [PIRINIXIC ACID]	Not Active	Not Active	Not Active	Not Active	Not Active	Not Active	Not Active	Not Active	Not Active	Not Active	–	–	–	–	–	–
CN1C[C@H](C(=O)N[C@]2(C)O[C@@]3(O)[C@@H]4CCCN4C(=O)[C@H](Cc4ccccc4)N3C2=O)C[C@@H]2c3cccc4[nH]cc(c34)C[C@H]21 [DIHYDROERGOTAMINE]	Not Active	Not Active	Not Active	Not Active	Not Active	Not Active	Not Active	Not Active	–	–	–	–	–	–	–	–
